Consider four compounds from patent US5202349A, “Substituted phenylacetylenes, pharmaceutical compositions containing these compounds and processes for the preparation of these compounds and compositions” (Gruenenthal GmbH, priority 1990, dated 1993).

Structures are written as SMILES.

In one test the target is T1, 5-lipoxygenase (Rattus norvegicus, UniProt P12527).
T1 construct: endogenous in cells; host or cells: rat basophilic leukemia cells
T1 sequence (P12527 1-673): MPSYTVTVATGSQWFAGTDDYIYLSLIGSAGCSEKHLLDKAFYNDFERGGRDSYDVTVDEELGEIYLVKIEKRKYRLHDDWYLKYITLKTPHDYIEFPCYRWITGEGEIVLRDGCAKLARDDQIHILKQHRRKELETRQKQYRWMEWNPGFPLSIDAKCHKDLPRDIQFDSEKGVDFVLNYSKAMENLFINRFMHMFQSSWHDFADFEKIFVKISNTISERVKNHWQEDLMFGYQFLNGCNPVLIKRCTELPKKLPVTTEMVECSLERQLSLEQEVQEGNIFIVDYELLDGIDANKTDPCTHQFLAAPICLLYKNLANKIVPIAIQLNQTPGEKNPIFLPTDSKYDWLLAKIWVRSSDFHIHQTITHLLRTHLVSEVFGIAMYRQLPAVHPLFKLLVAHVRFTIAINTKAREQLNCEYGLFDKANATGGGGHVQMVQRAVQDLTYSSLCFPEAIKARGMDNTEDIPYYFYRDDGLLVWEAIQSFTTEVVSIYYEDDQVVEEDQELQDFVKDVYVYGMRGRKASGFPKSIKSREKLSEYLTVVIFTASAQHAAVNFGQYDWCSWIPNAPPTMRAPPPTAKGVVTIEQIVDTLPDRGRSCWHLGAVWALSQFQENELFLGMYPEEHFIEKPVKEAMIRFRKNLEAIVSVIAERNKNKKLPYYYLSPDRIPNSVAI
The test is described as follows: Inhibition of 5-lipoxygenase in rat basophilic leukemia cells ([14C]-arachidonic acid, TLC). It is filed as cell-based. The conditions noted are these: for IC50: rat basophilic leukemia cells, standardized to nordihydroguaiaretic acid; for Quotient (IC50 cyclooxygenase (B) / 5-lipoxygenase (A)): selectivity. How it is done:
To 1 ml each of this suspension there was added indomethacin (10 μM) and calcium chlorid (2 mM) and then the mixture was incubated in presence or absence of a test compound for 3 minutes and thereafter with 20 μM of [^14 C]-arachidonic acid and 20 μM of the calcium ionophore A 23 187 for 10 minutes. The reaction was stopped by adding 20 μl of glacial acetic acid and then the mixture was extracted with ethyl acetate to isolate the metabolites of arachidonic acid formed by the enzymatic action of 5-lipoxygenase. These were separated by thin layer chromatography using a solvent mixture known to be suitable for leukotriene analysis [c.f. Jakschik et al., Biochem. Biophys. Res. Commun. 102, 624 (1981)]. The distribution of the radioactivity to the different metabolites was measured using a TLC Linear Analyzer. By bringing into relationship the percentages of the amount of the products formed under the action of 5-lipoxygenase (5-HETE, isomers of LTB4) in the controls (tests performed in absence of test compounds) and in the presence of test compounds of formula I in different concentrations the "IC50 -value" (i.e. the concentration of the test compound which causes an 50%-inhibition of the 5-lipoxygenase) is determined. For standardization these values then were brought into relationship to the IC50 -values determined in the same manner for the standard compound nordihydroguaiaretic acid.

The subject of test [1] is endotoxin/galactosamine-induced hepatitis, increase of liver specific enzymes in the serum. Nature of the test: Endotoxin/galactosamine-induced hepatitis in mice (septic shock model). It is filed as in vivo. Particulars: 10 mg/kg i.p. for each of five applications, 8 hours after endotoxin. As for the experimental part:
As a test model to evaluate the effects of test compounds in septic shock the endotoxin/galactosamine-induced hepatitis in mice has been used. […] The intraperitoneal application of 5-lipoxygenase inhibitors 30 minutes before, simultaneously with and 2, 4 and 6 hours after the application of endotoxin inhibitis the hepatitis-induced increase of the serum activities of these enzymes. On administration of compounds of the formula I in doses of 10 mg/kg for each of the five applications the following percentual inhibitions of the increase of the enzymes GPT and SDH were achieved (the increase of enzymatic activities in control animals was set at 100%): […]

The target of a further test is T2, cyclooxygenase (Ovis aries, UniProt P05979).
T2 construct: suspension of sheep seminal vesicle microsomes; from tissue; host or cells: sheep seminal vesicle microsomes
T2 sequence (P05979 25-600): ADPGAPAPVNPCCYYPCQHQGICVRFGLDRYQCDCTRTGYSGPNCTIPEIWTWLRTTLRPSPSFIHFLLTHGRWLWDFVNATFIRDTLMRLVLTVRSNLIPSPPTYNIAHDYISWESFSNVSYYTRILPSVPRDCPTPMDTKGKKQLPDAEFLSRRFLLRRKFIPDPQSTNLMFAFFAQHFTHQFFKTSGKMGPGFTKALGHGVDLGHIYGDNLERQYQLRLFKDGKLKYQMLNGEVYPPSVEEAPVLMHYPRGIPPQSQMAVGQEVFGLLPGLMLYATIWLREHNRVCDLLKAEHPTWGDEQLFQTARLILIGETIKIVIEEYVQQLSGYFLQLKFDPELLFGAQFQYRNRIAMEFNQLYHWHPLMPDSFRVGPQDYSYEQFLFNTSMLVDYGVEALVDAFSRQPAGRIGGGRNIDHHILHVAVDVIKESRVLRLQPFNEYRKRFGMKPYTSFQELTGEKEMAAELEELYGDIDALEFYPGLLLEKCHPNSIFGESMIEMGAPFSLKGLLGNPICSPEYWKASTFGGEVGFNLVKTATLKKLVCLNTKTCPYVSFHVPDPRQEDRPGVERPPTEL
The test is described as follows: Inhibition of cyclooxygenase in sheep seminal vesicle microsomes ([14C]-arachidonic acid, TLC). Type of test: biochemical. Particulars: pH 7.0, read-out: IC50 for inhibition of cyclooxygenase (B). How it is done:
The effect of the test compounds on the activity of cyclooxygenase was tested using a suspension of sheep seminal vesicle microsomes in 50 mM potassium phosphate buffer of pH 7.0 which was incubated with the solvent only (as control) or with the test compound and [^14 C]-arachidonic acid. The "IC50 -values (B)" (i.e. the concentration of the test compound which causes an 50%-inhibition of the cyclooxygenase) were determined by thin layer chromatography and by means of a TLC-Linear-Analyzer.

A further test has as its system bronchoconstriction. Nature of the test: Antiasthmatic activity: ovalbumin-induced bronchoconstriction in passively sensitized guinea pigs (Konzett-Rössler). Type of test: in vivo. The conditions noted are these: 100 mg/kg oral, 0.2 mg/kg i.v. ovalbumin challenge, 10 minutes. As for the experimental part:
The antiasthmatic activity of compounds of formula I was tested in narcotised and ventilated guinea pigs. For the induction of an asthmatic reaction, the animals were passively sensitized by a single intraperitoneal injection of anti-ovalbumin serum. 48 hours afterwards the asthmatic reaction was elicited by intravenous challenge with 0.2 mg/kg ovalbumin. The immediately resulting bronchoconstriction was measured as increase in overflow according to the Konzett-Rbssler method for a period of 10 minutes. Effects caused by histamine, serotonin and sympathic counterreaction were eliminated by intravenous pretreatment with 2.15 mg/kg mepyramine, 46.4 μg/kg propranolol, 4.64 mg/kg atropin and 1 mg/kg methysergide, all given 5 minutes before challenge.
After oral administration of the product of Example 5a or of the product of Example 9, in doses of 100 mg/kg each, the bronchoconstriction was inhibited by 54% or by 67%, respectively.

In test [2] the test system is ex vivo iLTB4-formation (5-lipoxygenase activity) in whole blood of rats. The test is described as follows: Inhibition of ex vivo iLTB4-formation in rat whole blood after oral administration. More on the design: species or system male rats (Wistar strain). As for the experimental part:
The bioavailability of the compounds of formula I after oral administration was characterized by means of an ex vivo biochemical assessment method described by Tateson et al. in Brit. Pharmacol., 94, 528 (1988).
Compounds of formula I were orally administered to male rats (Wistar strain). 1 hour later the rats were bled by heart puncture in letal CO2 -narcosis. The 5-lipoxygenase reaction was triggered by the addition of the calcium-ionophor A23187 to an end concentration of […] to aliquots of rat whole blood and subsequent incubation for 30 minutes at 37° C. in a water bath. At the end of the incubation the samples were centrifuged to collect the cell free plasma. The concentration of the immunoreactive LTB4 (iLTB4 ng/ml) in each plasma sample was determined by a LTB4 -radioimmunoassay (^3 H-LTB4 -RIA, Amersham) by means of a LTB4 -standard curve in diluted rat plasma. For calculation of the percent inhibition of ex vivo iLTB4 -formation in whole blood of rats treated with the compounds of formula I rats treated with appropiate vehicle solution were included in all experiments, aliquots of their blood were run in parallel and were processed in the same way as described. The mean iLTB4 -formation per ml plasma of these vehicle treated control rats served as 100 percent value of normal control 5-lipoxygenase activity. The percent inhibition of the ex vivo iLTB4 -formation after oral administration of compounds of formula I was calculated as follows: 100 minus 100 times the quotient of the mean iLTB4 concentration per ml plasma of the rats treated with compounds of formula I […] and the mean iLTB4 concentration per ml plasma of the control rats.

By IC50 is commonly meant the concentration that gives 50% inhibition. `CC(=O)N(O)Cc1cccc(C#Cc2ccc3ccccc3c2)c1` [Example 1, N-[3-(Naphth-2-yl-ethynyl)-benzyl]-acetohydroxamic acid]: on 5-lipoxygenase, the IC50 was determined as 670 nM and the “Quotient (IC50 cyclooxygenase (B) / 5-lipoxygenase (A))” value was greater than 746. Further, in test [1], the “Inhibition of increase of GPT” value worked out at 47% and the “Inhibition of increase of SDH” value worked out at 58%. Also, the IC50 on cyclooxygenase is greater than 500000 nM.
For `COc1ccc(C#Cc2cccc(CN(O)C(C)=O)c2)cc1` [Example 4, N-[3-(4-Methoxy-phenylethynyl)-benzyl]-acetohydroxamic acid], in test [1], the “Inhibition of increase of GPT” value is recorded as 87% and the “Inhibition of increase of SDH” value was 81%.
Usually inhibition in vivo stands for the relative decrease from the control value, in per cent. Lower therefore signals a response near the control. For the compound `COc1ccc(C#Cc2cccc(C(C)N(O)C(C)=O)c2)cc1` (stereo not shown) [Example 5a], the inhibition of bronchoconstriction in the test on bronchoconstriction came to 54%. Also, at 5-lipoxygenase, the IC50 was determined as 290 nM and the “Quotient (IC50 cyclooxygenase (B) / 5-lipoxygenase (A))” value is reported as 1517. For the same compound, the IC50 on cyclooxygenase is 440000 nM. Further, the inhibition in vivo at 21.5 mg/kg in test [2] (Rattus norvegicus, 21.5 mg/kg oral, blood taken 1 hour later) stood at 75%.
`COc1ccc(C#Cc2cccc(C(C)N(O)C(N)=O)c2)cc1` (stereo not shown) [Example 9, N-Hydroxy-N-{1-[3-(4-methoxy-phenylethynyl)-phenyl]-ethyl}-urea]: the inhibition of bronchoconstriction with bronchoconstriction is given as 67%. In addition, on 5-lipoxygenase, the IC50 was found to be 150 nM and the “Quotient (IC50 cyclooxygenase (B) / 5-lipoxygenase (A))” value stood at 667. In test [1], the “Inhibition of increase of GPT” value turned out to be 94% and the “Inhibition of increase of SDH” value turned out to be 90%. In addition, the IC50 at cyclooxygenase was determined as 100000 nM. In addition, the “inhibition of the ex vivo iLTB4-formation” value in test [2] (10 mg/kg oral) was found to be 86%.
